Results taken from US20250084091A1, “INHIBITORS OF SARS-COV-2” (The Texas A&M University System, priority 2021, published 2025).
Like-named read-outs stand apart in the source and are kept apart here.

Tests used:
[1] = tested on: SARS-CoV-2 (strain USA-WA1/2020); experiment: microbe, parasite or virus in culture; assay type: cell-based
[2] = target: SARS-CoV-2 main protease (Mpro) (Severe acute respiratory syndrome coronavirus 2, UniProt P0DTD1); experiment: biochemical; conditions: for inhibition at 20 µM: read-out: Enzyme inhibition @ 20 uM
[3] = Severe acute respiratory syndrome coronavirus 2, HeLa, Table 3, read-out: CoV-2 HeLa EC50
[4] = Table 3, select example compounds against mpro, read-out: Enzyme IC50

O=C(c1cncc2cn[nH]c12)N1CCC(=C2c3ccccc3CS(=O)(=O)c3ccccc32)CC1 [NZ-821, [4-(5,5-dioxo-6H-benzo[c][1]benzothiepin-11-ylidene)-1-piperidyl]-(1H-pyrazolo[4,3-c]pyridin-7-yl)methanone]
EC50 [1, 3]: 23 nM
IC50 ([2]; Table 2, read-out: Enzyme IC50): 44 nM
IC50 [2, 4]: 44 nM

Cc1cc(C(=O)N2CCN(C3c4ccccc4CS(=O)(=O)c4ccccc43)CC2)cnc1N (stereo not drawn) [NZ-819, (6-amino-5-methyl-3-pyridyl)-[4-(5,5-dioxo-6,11-dihydrobenzo[c][1]benzothiepin-11-yl)piperazin-1-yl]methanone]
IC50 ([2]; Table 2, read-out: Enzyme IC50): 20000 nM

O=C(c1cncc2cc[nH]c12)N1CC2CCC(C1)N2C(c1cccc(F)c1)c1cccc(F)c1 [AA-663, [8-[bis(3-fluorophenyl)methyl]-3,8-diazabicyclo[3.2.1]octan-3-yl]-(1H-pyrrolo[3,2-c]pyridin-7-yl)methanone]
EC50 ([1]; Severe acute respiratory syndrome coronavirus 2, HeLa, read-out: CoV-2 HeLa EC50, Table 3): 63 nM
IC50 ([2]; Enzyme IC50, Table 2): 38 nM
IC50 ([2]; Enzyme IC50, Table 3, select example compounds against mpro): 14 nM

O=C(c1cncc2cc[nH]c12)N1CCC(=C(c2cccc(F)c2)c2cccc(F)c2)CC1 [MKP-1355, (4-(bis(3-fluorophenyl)methylene)piperidin-1-yl)(1H-pyrrolo[3,2-c]pyridin-7-yl)methanone]
EC50 [1, 3]: 94 nM
IC50 ([2]; Table 2, read-out: Enzyme IC50): 28 nM
IC50 [2, 4]: 12 nM

O=C(c1cnccn1)N1CCN(C(c2ccccc2)c2cccnc2)CC1 (stereo not drawn) [MKP-1188, 2-{4-[phenyl(pyridin-3-yl)methyl]piperazine-1-carbonyl}pyrazine]
inhibition at 20 µM [2]: 50%

O=C(c1cncc(Br)c1)N1CCN(C(c2ccccc2)c2cccnc2)CC1 (stereo not drawn) [MKP-1200, 1-(5-bromopyridine-3-carbonyl)-4-[phenyl(pyridin-3-yl)methyl]piperazine]
IC50 ([2]; Table 2, read-out: Enzyme IC50): 320 nM

Cc1cncc(C(=O)N2CCN(C(c3ccccc3)c3ccccn3)CC2)c1 (stereo not drawn) [MKP-1416, (5-methylpyridin-3-yl)(4-(phenyl(pyridin-2-yl)methyl)piperazin-1-yl)methanone]
IC50 ([2]; Table 2, read-out: Enzyme IC50): 176 nM

CC(C)(C)OC(=O)NCc1cncc(C(=O)N2CCN(C(c3ccccc3)c3ccccc3)CC2)c1 [PKJ-703, tert-butyl ((5-(4-benzhydrylpiperazine-1-carbonyl)pyridin-3-yl)methyl)carbamate]
IC50 ([2]; Table 2, read-out: Enzyme IC50): 930 nM

O=C1Nc2ccc(F)cc2C1CC(=O)N1CCN(C(c2ccccc2)c2ccccc2)CC1 (stereo not drawn) [PKJ-663, 3-(2-(4-benzhydrylpiperazin-1-yl)-2-oxoethyl)-5-fluoroindolin-2-one]
IC50 ([2]; Table 2, read-out: Enzyme IC50): > 80000 nM

Cc1cncc(C(=O)N2CCC(=C(c3ccccn3)c3ccccn3)CC2)c1 [MKP-1422, (4-(di(pyridin-2-yl)methylene)piperidin-1-yl)(5-methylpyridin-3-yl)methanone]
IC50 ([2]; Table 2, read-out: Enzyme IC50): 110 nM

Cc1cncc(C(=O)N2CCC(=C(c3cccc(O)c3)c3cccc(O)c3)CC2)c1 [MKP-1381, (4-(bis(3-hydroxyphenyl)methylene)piperidin-1-yl)(5-methylpyridin-3-yl)methanone]
IC50 ([2]; Table 2, read-out: Enzyme IC50): 94 nM

Cc1cncc(C(=O)C2CCN(C(c3ccccc3)c3ccccc3)CC2=O)c1 (stereo not drawn) [PKJ-672, 1-benzhydryl-4-(5-methylnicotinoyl)piperidin-3-one]
IC50 ([2]; Table 2, read-out: Enzyme IC50): 760 nM

Cc1cncc(C(=O)N2CCC(=C(c3ccccc3)c3ccncc3)CC2)c1 [MKP-1398, (5-methylpyridin-3-yl)(4-(phenyl(pyridin-4-yl)methylene)piperidin-1-yl)methanone]
IC50 ([2]; Table 2, read-out: Enzyme IC50): 580 nM

Cc1cncc(C(=O)N2CCC(N(c3cccc(F)c3)c3cccc(F)c3)CC2)c1 [MKP-1404, (4-(bis(3-fluorophenyl)amino)piperidin-1-yl)(5-methylpyridin-3-yl)methanone]
IC50 ([2]; Table 2, read-out: Enzyme IC50): 2660 nM

O=C(c1cncc2cc[nH]c12)N1CCC(N(c2ccccc2)c2ccccc2)CC1 [AA-667, [4-(N-phenylanilino)-1-piperidyl]-(1H-pyrrolo[3,2-c]pyridin-7-yl)methanone]
IC50 ([2]; Table 2, read-out: Enzyme IC50): 3320 nM

O=C(c1cncc2cc[nH]c12)N1CCC(=C(c2cccc(O)c2)c2cccc(O)c2)CC1 [MKP-1410, (4-(bis(3-hydroxyphenyl)methylene)piperidin-1-yl)(1H-pyrrolo[3,2-c]pyridin-7-yl)methanone]
IC50 ([2]; Table 2, read-out: Enzyme IC50): 41 nM

Cc1cncc(C(=O)N2CCC(=C(c3ccccc3)c3cccc(F)c3)CC2)c1 [MKP-1360, (4-((3-fluorophenyl)(phenyl)methylene)piperidin-1-yl)(5-methylpyridin-3-yl)methanone]
IC50 ([2]; Table 2, read-out: Enzyme IC50): 35 nM

O=C1CN(C(=O)N2CCN(C3c4ccccc4CS(=O)(=O)c4ccccc43)CC2)c2ccccc2N1 (stereo not drawn) [NZ-812, 4-[4-(5,5-dioxo-6,11-dihydrobenzo[c][1]benzothiepin-11-yl)piperazine-1-carbonyl]-1,3-dihydroquinoxalin-2-one]
IC50 ([2]; Table 2, read-out: Enzyme IC50): 550 nM

Cc1cncc(C(=O)N2CCC(=C(c3ccc(F)cc3)c3cccc(F)c3)CC2)c1 [MKP-1359, (4-((3-fluorophenyl)(4-fluorophenyl)methylene)piperidin-1-yl)(5-methylpyridin-3-yl)methanone]
IC50 ([2]; Table 2, read-out: Enzyme IC50): 44 nM

O=C(c1cnccc1Cl)N1CCN(C2c3ccccc3CCc3ccccc32)CC1 [ZS-331, (4-chloro-3-pyridyl)-[4-(2-tricyclo[9.4.0.03,8]pentadeca-1(11),3(8),4,6,12,14-hexaenyl)piperazin-1-yl]methanone]
IC50 ([2]; Table 2, read-out: Enzyme IC50): 370 nM

Cc1cncc(C(=O)N2CCN(C(c3ccccc3)c3ccncc3)CC2)c1 (stereo not drawn) [MKP-1442, (5-methylpyridin-3-yl)(4-(phenyl(pyridin-4-yl)methyl)piperazin-1-yl)methanone]
IC50 ([2]; Table 2, read-out: Enzyme IC50): 1600 nM

CS(=O)(=O)c1ccccc1C(c1ccccc1)N1CCN(C(=O)c2cncc3cc[nH]c23)CC1 (stereo not drawn) [NZ-814, [4-[(2-methylsulfonylphenyl)-phenyl-methyl]piperazin-1-yl]-(1H-pyrrolo[3,2-c]pyridin-7-yl)methanone]
IC50 ([2]; Table 2, read-out: Enzyme IC50): 53 nM

O=C(c1cncnc1)N1CCN(C(c2ccccc2)c2cccnc2)CC1 (stereo not drawn) [MKP-1189, 5-{4-[phenyl(pyridin-3-yl)methyl]piperazine-1-carbonyl}pyrimidine]
inhibition at 20 µM [2]: 60%

CS(=O)(=O)c1ccccc1C(c1cccc(F)c1)N1CCN(C(=O)c2cncc3cc[nH]c23)CC1 (stereo not drawn) [NZ-816, [4-[(3-fluorophenyl)-(2-methylsulfonylphenyl)methyl]piperazin-1-yl]-(1H-pyrrolo[3,2-c]pyridin-7-yl)methanone]
EC50 [1, 3]: 40 nM
IC50 ([2]; Table 2, read-out: Enzyme IC50): 30 nM
IC50 [2, 4]: 17 nM

O=C1Nc2ccccc2C(N2CCN(C(=O)c3cncc4cc[nH]c34)CC2)c2ccccc21 (stereo not drawn) [NZ-815, 11-[4-(1H-pyrrolo[3,2-c]pyridine-7-carbonyl)piperazin-1-yl]-5,11-dihydrobenzo[c][1]benzazepin-6-one]
EC50 [1, 3]: 97 nM
IC50 ([2]; Table 2, read-out: Enzyme IC50): 30 nM
IC50 [2, 4]: 30 nM

Cc1cncc(C(=O)N2CCC(=C(c3ccccc3)C3CCCCC3)CC2)c1 [MKP-1421, (4-(cyclohexyl(phenyl)methylene)piperidin-1-yl)(5-methylpyridin-3-yl)methanone]
IC50 ([2]; Table 2, read-out: Enzyme IC50): 920 nM

Cc1cncc(C(=O)N2CCC(=C(c3cccnc3)c3cccc(O)c3)CC2)c1 [MKP-1392, (4-((3-hydroxyphenyl)(pyridin-3-yl)methylene)piperidin-1-yl)(5-methylpyridin-3-yl)methanone]
IC50 ([2]; Table 2, read-out: Enzyme IC50): 93 nM

O=C(c1cncc2cc[nH]c12)N1CCN(C(c2cccc(F)c2)c2cccc(F)c2)CC1 [MKP-1371, (4-(bis(3-fluorophenyl)methyl)piperazin-1-yl)(1H-pyrrolo[3,2-c]pyridin-7-yl)methanone]
EC50 [1, 3]: 47 nM
IC50 ([2]; Table 2, read-out: Enzyme IC50): 25 nM
IC50 [2, 4]: 13 nM

Cc1cncc(C(=O)N2CCC(=C(c3ccccc3)c3ccccn3)CC2)c1 [MKP-1400, (5-methylpyridin-3-yl)(4-(phenyl(pyridin-2-yl)methylene)piperidin-1-yl)methanone]
IC50 ([2]; Table 2, read-out: Enzyme IC50): 74 nM

O=C(C1CNCCO1)N1CCN(C(c2ccccc2)c2ccccc2)CC1 (stereo not drawn) [AA-582, (4-benzhydrylpiperazin-1-yl)(morpholin-2-yl)methanone]
inhibition at 20 µM [2]: 60%

Cc1cncc(CN2CCN(C(c3ccccc3)c3ccccc3)CC2=O)c1 [AA-646, 4-benzhydryl-1-((5-methylpyridin-3-yl)methyl)piperazin-2-one]
EC50 ([1]; Severe acute respiratory syndrome coronavirus 2, Table 2, SARS-CoV-2 infected HeLa-ACE2 cells, read-out: CoV-2 HeLa EC50): 5200 nM
IC50 ([2]; Table 2, read-out: Enzyme IC50): 6100 nM

NCc1cncc(C(=O)N2CCN(C(c3ccccc3)c3ccccc3)CC2)c1 [PKJ-704, (5-(aminomethyl)pyridin-3-yl)(4-benzhydrylpiperazin-1-yl)methanone]
IC50 ([2]; Table 2, read-out: Enzyme IC50): 1600 nM

Cc1cncc(C(=O)N2CCC(=C(c3cccc(F)c3)c3cccc(F)c3)CC2)c1 [MKP-1349, (4-(bis(3-fluorophenyl)methylene)piperidin-1-yl)(5-methylpyridin-3-yl)methanone]
IC50 ([2]; Table 2, read-out: Enzyme IC50): 42 nM

COc1cccc(C(c2ccccc2)N2CCN(C(=O)c3cccnc3)CC2)c1 (stereo not drawn) [MKP-1203, 1-[(3-methoxyphenyl)(phenyl)methyl]-4-(pyridine-3-carbonyl)piperazine]
IC50 ([2]; Table 2, read-out: Enzyme IC50): 2800 nM

COc1ccccc1C(=C1CCN(C(=O)c2cncc(C)c2)CC1)c1ccccn1 [MKP-1440, (4-((2-methoxyphenyl)(pyridin-2-yl)methylene)piperidin-1-yl)(5-methylpyridin-3-yl)methanone]
IC50 ([2]; Table 2, read-out: Enzyme IC50): 170 nM

COc1cccc(C(c2ccccc2)N2CCN(C(=O)c3cncc(Cl)c3)CC2)c1 (stereo not drawn) [MKP-1205, 1-(5-chloropyridine-3-carbonyl)-4-[(3-methoxyphenyl)(phenyl)methyl] piperazine]
IC50 ([2]; Table 2, read-out: Enzyme IC50): 550 nM

CC(=O)Nc1ncc(C(=O)N2CCN(C3c4ccccc4CS(=O)(=O)c4ccccc43)CC2)cc1C (stereo not drawn) [NZ-820, N-[5-[4-(5,5-dioxo-6,11-dihydrobenzo[c][1]benzothiepin-11-yl)piperazine-1-carbonyl]-3-methyl-2-pyridyl]acetamide]
IC50 ([2]; Table 2, read-out: Enzyme IC50): > 80000 nM

Cc1cncc(C(=O)N2CCN(C(c3cccc(F)c3)c3ccccc3S(C)(=O)=O)CC2)c1 (stereo not drawn) [NZ-817, [4-[(3-fluorophenyl)-(2-methylsulfonylphenyl)methyl]piperazin-1-yl]-(5-methyl-3-pyridyl)methanone]
IC50 ([2]; Table 2, read-out: Enzyme IC50): 33 nM
